{
  "source": "patent EP0751947B1",
  "about": "“GLUCOSIDIC DERIVATIVES OF N-ACYL ALKYLAMINES EXERTING NEUROPROTECTIVE, NEUROTROPHIC AND ANTI-INFLAMMATORY ACTION, USEFUL IN ACUTE AND CHRONIC DISORDERS OF THE CENTRAL NERVOUS SYSTEM CONNECTED WITH EXCITOTOXICITY” (LIFEGROUP S.p.A., priority 1994, dated 1995)",
  "key": {"physchem [1]": {"experiment": "physchem"}, "physchem [2]": {"experiment": "physchem", "details": "hot water"}, "granule cells": {"test_system": "granule cells", "experiment": "neuroprotective effect against Excitatory Amino Acids (L-glutamic acid)-induced neuronal death in vitro, cell survival by MTT", "format": "cell-based, mouse", "details": "for survived cells (%): A: Glu 500 µM, 5 min, incubated 24 hrs; for cytoprotection against Glu neurotoxicity: result in words, Glu 500 µM for 5 min, Table 5; for Survived Cells: co-treatment", "method": "The compounds being evaluated, referred to as No. 1, 2, 3, 4, 5, 9 and 10 (with reference to the molecules whose syntheses have been described by way of example), Diltiazem, MK 801 and monosialoganglioside GM1, were solubilized in Locke's solution and added to the culture mediums at the desired concentrations according to different treatment schedule indicated in the Tables, with a view to checking: • dose-effect relationship; • time-effect relationship vs. incubation time (start and duration) and exposure to neurotoxin.\nGranule cell cultures were prepared from post natal day 8-9 mouse Balb-6 cerebellum. The cells were suspended in EBM + 2mM L-glutamine, 100 U/ml penicillin, 50 µg/l gentamicin, 25 mM KCl and 10% fetal calf serum, plated on polylysine substrate, cultured for 8-10 days, and exposed to: i) L-glutamic acid (100 µM) at room temperature for 30-40 min. ii) L-glutamic acid (500 µM) at room temperature for 5 min.\nThe compounds being evaluated were incubated at different times (2 hrs before and at the same time as exposure) or for different times ranging from 5 to 60 minutes after exposure to L-glutamic acid. The cultures were then brought back to the original medium and the number of survived cells was assessed by colorimetric method (MTT) 24 hours after excitotoxic stimulation."}, "solubility in water": {"experiment": "solubility in water", "details": "for solubility: hot water"}, "RBL-2H3 cells": {"test_system": "RBL-2H3 cells", "experiment": "[3H]serotonin release assay in DNP-HSA stimulated RBL-2H3 cells", "format": "cell-based, Rat", "details": "co-treatment with DNP-HSA, 15 min; 100 µM or 60 µM (not assigned per compound)", "method": "The compounds under evaluation as per Ex. 1, 3, 4, and 9 were dissolved in DMSO 0.2%, while the compound of Ex. 6 was dissolved in DMSO 1%, and they were added at the desired concentration of 100 µM or 60 µM.\nRat basophil leukemia cells of the secreting subline 2H3 were grown in stationary cultures at 37°C in Eagle's minimal essential medium supplemented to contain 2mM L-glutamine, 100 IU/ml penicillin and 20% (v/v) heat-inactivated fetal calf serum (FCS). Cells were passed twice a week.\nA mouse monoclonal IgE which is specific for dinitrophenol (DNP) haptens (clone SPE-7; Sigma) was used. Dinitrophenylated human serum albumin (DNP-HSA) was employed as the triggering agent in these experiments. The level of conjunction was 30-40 moles of DNP per mole of albumin (Sigma). […] The culture supernatants were then collected in Eppendorf tubes, centrifuged (4 min, 3000 rpm) and 50 µl aliquots counted by standard liquid scintillation techniques. The cellular contents of each well were solubilized with 100 µl of 1% Triton X-100 in PBS, and a 50 µl aliquot counted as above. The percent of [3H]serotonin release was calculated.\nBackground (spontaneous) release was normally < 5 % of the total radioactivity incorporated, and was always substracted from the stimulated release value (\"net\" release)."}, "[3]": {"experiment": "solubility in organic solvents", "details": "ethanol and dmso, organic solvent or mixture"}, "cerebellar granule cells": {"test_system": "cerebellar granule cells", "experiment": "protection against apoptotic neuronal cell death induced by low potassium (KCl 5mM), MTT assay", "format": "cell-based, Mouse", "details": "compound 100 µM in DMSO 0.2%, MTT 24 hrs later", "method": "The compounds as in Ex.3, 5, 8, 9 and 11 and GM1 were solubilized in DMSO 0.2% and added to the cells at the desired concentration.\nMouse (Balb 6, 8-9 post-natal day) cerebellar granule cells were plated in basal Eagle medium (BEM) + 10% fetal calf serum + 25 […] + 2 mM glutamine + 100 µg/ml gentamicine dishes and coated with poly/L lisine. Culture medium was replaced with serum-free medium 6-9 days after plating. […] Neuronal cell survival was measured 24 hrs later by MTT assay."}, "[4]": {"details": "compound 10 µM added 0 min after Glu removal"}},
  "data": [
    {"molecule": "CCCCCCCCCCCC(=O)NCCO[C@H]1O[C@H](CO)[C@@H](O)[C@H](O)[C@H]1O", "note": "[Example 14, 2-0-(α-D-glucopyranosyl)-N-dodecanoyl-aminoethanol]", "values": [
      {"measurement": "solubility", "setting": "physchem [1]; ethanol and dmso", "result": "> 10000", "unit": "µg/mL"},
      {"measurement": "solubility", "setting": "physchem [2]", "result": "> 10000", "unit": "µg/mL"}
    ]},
    {"molecule": "O=C(CCCCCCCC(=O)NCCO[C@@H]1O[C@H](CO)[C@@H](O)[C@H](O)[C@H]1O)NCCO[C@@H]1O[C@H](CO)[C@@H](O)[C@H](O)[C@H]1O", "note": "[Example 12, N,N'-bis-[2-0-(β-D-glucopyranosyl)-ethyl]-nonanediamide]", "values": [
      {"measurement": "solubility", "setting": "physchem [1]; dmso", "result": "> 10000", "unit": "µg/mL"},
      {"measurement": "solubility", "setting": "physchem [2]", "result": "> 10000", "unit": "µg/mL"}
    ]},
    {"molecule": "COc1ccc([C@@H]2Sc3ccccc3N(CCN(C)C)C(=O)[C@@H]2OC(C)=O)cc1", "note": "[Diltiazem, reference compound]", "values": [
      {"measurement": "survived cells (%)", "setting": "granule cells; [4]", "result": 35, "unit": "%"},
      {"measurement": "cytoprotection against Glu neurotoxicity", "setting": "granule cells", "result": "does not show any significant action"}
    ]},
    {"molecule": "O=C(NCCO[C@@H]1O[C@H](CO)[C@H](O)[C@H](O)[C@H]1O)c1ccccc1", "note": "[Example 6, 2-0-(β-D-galactopyranosyl)-N-benzoyl-aminoethanol]", "values": [
      {"measurement": "solubility", "setting": "solubility in water", "result": "> 10000", "unit": "µg/mL"},
      {"measurement": "% of inhibition (serotonin net release inhibition)", "setting": "RBL-2H3 cells", "result": 54, "unit": "%"},
      {"measurement": "solubility", "setting": "[3]", "result": "> 10000", "unit": "µg/mL"}
    ]},
    {"molecule": "CCCCCCCCCCCCCCCC(=O)NCCO[C@@H]1O[C@H](CO)[C@@H](O)[C@H](O)[C@H]1O", "note": "[Example 1, 2-O-(β-D-glucopyranosyl)-N-palmitoylaminoethanol]", "values": [
      {"measurement": "solubility in water", "setting": "solubility in water; at room temperature, result in words", "result": "poorly soluble"},
      {"measurement": "solubility", "setting": "solubility in water", "result": "> 10000", "unit": "µg/mL"},
      {"measurement": "survived cells (%) pre.", "setting": "granule cells; Glu 100 µM, 40 min, room temperature, compound 100 µM added 2 hrs before and then removed, survival after 24 hrs", "result": 44, "unit": "%"},
      {"measurement": "survived cells (%) co.", "setting": "granule cells; Glu 100 µM, 40 min, room temperature, compound 100 µM added at the same time, survival after 24 hrs", "result": 57, "unit": "%"},
      {"measurement": "survived cells (%) pre.+ co.", "setting": "granule cells; Glu 100 µM, 40 min, room temperature, compound 100 µM, 2 hrs before and at the same time, survival after 24 hrs", "result": 35, "unit": "%"},
      {"measurement": "Survived Cells", "setting": "granule cells; Glu 100 µM, room temperature, 40 min, compound 10 µM", "result": 22, "unit": "%"},
      {"measurement": "Survived Cells", "setting": "granule cells; Glu 100 µM, room temperature, 40 min, compound 25 µM", "result": 35, "unit": "%"},
      {"measurement": "Survived Cells", "setting": "granule cells; Glu 100 µM, room temperature, 40 min, compound 50 µM", "result": 48, "unit": "%"},
      {"measurement": "Survived Cells", "setting": "granule cells; Glu 100 µM, room temperature, 40 min, compound 100 µM", "result": 67, "unit": "%"},
      {"measurement": "Survived Cells", "setting": "granule cells; Glu 100 µM, room temperature, 40 min, compound 200 µM", "result": 90, "unit": "%"},
      {"measurement": "% of inhibition (serotonin net release inhibition)", "setting": "RBL-2H3 cells", "result": 57, "unit": "%"},
      {"measurement": "solubility", "setting": "[3]", "result": "> 10000", "unit": "µg/mL"}
    ]},
    {"molecule": "monosialoganglioside GM1 [reference compound]", "values": [
      {"measurement": "survived cells (%)", "setting": "granule cells; compound 100 µM added 0 min after Glu removal", "result": 31, "unit": "%"},
      {"measurement": "cytoprotection against Glu neurotoxicity", "setting": "granule cells", "result": "does not show any significant action"},
      {"measurement": "Cell survival (%)", "setting": "cerebellar granule cells", "result": 78, "unit": "%"}
    ]},
    {"molecule": "CCCCCCCCCCCCCCCCCC(=O)NCCO[C@@H]1O[C@H](CO)[C@@H](O)[C@H](O)[C@H]1O", "note": "[Example 11, 2-0-(β-D-glucopyranosyl)-N-stearoyl-aminoethanol]", "values": [
      {"measurement": "solubility", "setting": "physchem [1]; dmso and hot isopropyl alcohol", "result": "> 10000", "unit": "µg/mL"},
      {"measurement": "Cell survival (%)", "setting": "cerebellar granule cells", "result": 51, "unit": "%"}
    ]},
    {"molecule": "C[C@]12N[C@H](Cc3ccccc31)c1ccccc12", "note": "[MK 801, reference compound]", "values": [
      {"measurement": "survived cells (%)", "setting": "granule cells; [4]", "result": 66, "unit": "%"},
      {"measurement": "survived cells (%)", "setting": "granule cells; compound 10 µM added 15 min after Glu removal", "result": 32, "unit": "%"},
      {"measurement": "survived cells (%)", "setting": "granule cells; compound 10 µM added 30 min after Glu removal", "result": 30, "unit": "%"},
      {"measurement": "cytoprotection against Glu neurotoxicity", "setting": "granule cells", "result": "protective, at least partially, only after co-treatment"}
    ]},
    {"molecule": "CCCCCCCCCC(=O)NCCO[C@@H]1O[C@H](CO)[C@@H](O)[C@H](O)[C@H]1O", "note": "[Example 8, 2-0-(β-D-glucopyranosyl)-N-decanoyl-aminoethanol]", "values": [
      {"measurement": "solubility", "setting": "solubility in water", "result": "> 10000", "unit": "µg/mL"},
      {"measurement": "Cell survival (%)", "setting": "cerebellar granule cells", "result": 51, "unit": "%"},
      {"measurement": "solubility", "setting": "[3]", "result": "> 10000", "unit": "µg/mL"}
    ]},
    {"molecule": "CCCCC/C=C\\C/C=C\\C/C=C\\C/C=C\\CCCC(=O)NCCO[C@@H]1O[C@H](CO)[C@@H](O)[C@H](O)[C@H]1O", "note": "[Example 13, 2-0-(β-D-glucopyranosyl)-N-arachidonoyl-aminoethanol]", "values": [
      {"measurement": "water solubility", "setting": "solubility in water; result in words", "result": "poorly soluble"},
      {"measurement": "solubility", "setting": "[3]", "result": "> 10000", "unit": "µg/mL"}
    ]}
  ]
}
